How the values were obtained:
ML-2 [1] = test: Cytokine induction, electrochemiluminescence assay of culture supernatant; assay type: cell-based, human; settings: compounds at 1 μM, 72 hours
MV4-11 [2] = test: as above; assay type: cell-based, human; settings: compounds at 1 μM, 72 hours
MV4-11 [3] = test: Caspase 8/FLICE activity colorimetric assay; assay type: cell-based, human; settings: compounds at 1 μM, 24, 48 and 72 hours
Procedure: (§1) Next, tests were performed to see if caspase 8 activation alone is sufficient to mediate IL-1β induction. […] To ensure caspase 8 activity was captured at an appropriate time frame, caspase 8 activation levels at 24, 48 and 72 hours were measured (FIGS. 3C and 3D) using a caspase 8/FLICE activity colorimetric assay.

ML-2 [4] = test: Caspase 8/FLICE activity colorimetric assay; assay type: cell-based, human; settings: compounds at 1 μM, 24, 48 and 72 hours
Procedure: as §1

[5] = test system: acute myeloid leukemia (AML) at relapse; settings: administered alone; cited from earlier work

Compound | Secreted IL-1β levels, panel of mechanistic compounds (ML-2 [1]) | Secreted IL-1β levels, panel of mechanistic compounds (MV4-11 [2]) | Caspase 8 activation level (MV4-11 [3]) | Caspase 8 activation level (ML-2 [4]) | Response in treating AML at relapse [5]
COc1cccc2c1C(=O)c1c(O)c3c(c(O)c1C2=O)C[C@@](O)(C(C)=O)C[C@@H]3O[C@H]1C[C@H](N)[C@H](O)[C@H](C)O1 [daunorubicin, reference compound] | not able to induce secreted IL-1β as efficiently as Compound 1 | not able to induce secreted IL-1β as efficiently as Compound 1 | higher extent of caspase 8 activation than Compound 1 | higher extent of caspase 8 activation than Compound 1 | 
CT-011: anti-PD-1 antibody, a humanized antibody |  |  |  |  | failed to show response

Reference: US12090147B2, “Combination therapy with 2-(4-chlorophenyl)-N-((2-(2,6-dioxopiperidin-3-yl)-1-oxoisoindolin-5-yl)methyl)-2,2-difluoroacetamide” (Celgene Corporation, priority 2019, dated 2024)
